# Test results taken from patent publication US3948925A, “Novel thiazole derivatives” (priority 1973, dated 1976).
# Like-named read-outs stand apart in the source and are kept apart here.
# Tests used:
# Assay type in all cases: in vivo
# [1] = test system: Tetranychus urticae; assay: Acaricidal activity, adulticide test on infested bean leaves; details: read-out: % Mortality (adults); for mortality at 10 µg/mL: 10 mg/liter
# Description: Bean leaves infested with 25 acarids per leaf and coated with glue about their edge were divided into 2 groups. The first group was sprayed with 2.5 ml of an aqueous solution of the test compound A for each leaf at concentrations of 50, 10 and 1 mg/liter. The second control group was untreated and the number of acarids living 48 hours after the spraying was determined to determine the percent of mortality.
# [2] = test system: Panagrellus silusae; assay: Nematocidal activity against Panagrellus silusae in aqueous suspension; details: for mortality at 100 µg/mL / mortality at 1000 µg/mL: Panagrellus, 24 hours; for mortality at 100 µg/mL: 0.1 g/l; for mortality at 1000 µg/mL: 1 g/l; for nematocidal activity: in vivo
# Description: (§1) About 2000 nematodes suspended in 0.5 ml of water were placed in a container of about 50 ml and 10 ml of an aqueous suspension of the test compound at a concentration of 1 or 0.1 g/liter were added thereto using 3 tests for each concentration. After homogenization of the aqueous media for 24 hours, a 1 ml sample was taken and the living and dead nematodes were counted with a Peter sheet.
# [3] = test system: Ditylenchus myceliophagus; assay: Nematocidal activity against Ditylenchus myceliophagus in aqueous suspension; details: for mortality at 100 µg/mL / mortality at 1000 µg/mL: Ditylenchus myceliophagus, 24 hours; for mortality at 100 µg/mL: 0.1 g/l; for mortality at 1000 µg/mL: 1.0 g/l; for nematocidal activity: in vivo
# Description: as §1
# [4] = test system: Blatella germanica; assay: Insecticidal activity against Blatella germanica, topical application to ventral thorax; details: for insecticidal activity: in vivo
# Description: 1 μl of an acetone solution of the test product was applied to the ventral thorax of the insects with 20 insects per dose and concentrations of 2500, 1250, 625 and 312,5 mg/liter. The number of living and dead insects 24 and 48 hours and 6 days after the treatment was determined and the results were reported in Table VI.
# [5] = test system: Drosophila melanogaster; assay: Insecticidal activity against Drosophila melanogaster, dried film in crystallizer (contact and vapor); details: for Emax at 50 µg/mL / Emax at 500 µg/mL / Emax at 5000 µg/mL: Drosophila melanogaster, read-out: % Efficacy; for Emax at 50 µg/mL: 50 mg/liter; for Emax at 500 µg/mL: 500 mg/liter; for Emax at 5000 µg/mL: 5000 mg/liter
# Description: 2 ml of an acetone solution of the test product at concentrations of 5000, 500 and 50 ppm were placed in the bottom of a crystallizer and were then allowed to dry for 1 hour under a laboratory atmosphere. Three tests were run for each concentration and 25 to 50 drosophiles were placed in the crystallizer together with a carrot ring which acted as nutrient for the insects. The crystallizers were closed with a Petri dish cover and they were stored at 20°C. The number of living and dead insects was determined after 1,2,4 and 24 hours and the results for compound A are reported in Table IV.
# [6] = test system: Mamestra brassicae caterpillars; assay: Insecticidal activity against Mamestra brassicae caterpillars, topical application; details: 10 μg per caterpillar; for mortality at 0.01 mg: Mamestra brassicae, topical, read-out: percent of mortality
# Description: (§2) This test was effected on Mamestra brassicae caterpillars in the last larvae stage with a body of 1.5 to 2.0 cm. 1 μl of an acetone solution of the test compound was applied topically to the dorsal thorax of each caterpillar using 10 caterpillars for each dose studied and the caterpillars were kept at 25°C.
# [7] = test system: Ceratitis capitata; assay: Insecticidal activity against Ceratitis capitata flies, topical application; details: for mortality at 100 µg/mL / mortality at 1000 µg/mL: Ceratitis capitata; for mortality at 100 µg/mL: topical; for mortality at 1000 µg/mL: 1000 mg per liter, 1 μl topical
# Description: This test was effected topically with acetone solutions of 1000 or 100 mg of compound A per liter and 1 μl of the solution was applied to the dorsal thorax of Ceratitis capitata flies aged 25 days (± 0.5) using 50 insects for each concentration. The number of flies still living and dead was determined after 2 and 24 hours to determine the percent of mortality.
# [8] = test system: Mamestra oleracea caterpillars; assay: Insecticidal activity against Mamestra oleracea caterpillars, topical application; details: for mortality at 0.001 mg / mortality at 0.01 mg: Mamestra, topical; for mortality at 0.001 mg: 1 μg; for mortality at 0.01 mg: 10 μg
# [9] = test system: Tetranychus urticae eggs; assay: Acaricidal activity, ovicide test on egg-infested bean leaves; details: 216 h, 9 days after treatment
# Description: (§3) Bean leaves infested with 10 Tetranychus urticae females per leaf and coated with glue about their periphery were used in this test and the females were left to lay eggs for 24 hours and were then removed from the leaves which were egg infested and divided into 2 groups. The first group was sprayed with 0.5 ml of an aqueous solution of compound A for each leaf at concentrations of 50 or 10 mg per liter and the second group was untreated to act as controls. The number of living eggs 9 days after the treatment was determined and the percent of egg mortality was determined and reported in Table IX.
# [10] = test system: Tetranychus urticae larvae; assay: Acaricidal activity, larvicide test on bean leaves; details: 216 h, 9 days after treatment
# Description: as §3
# This test was similar to the ovicide test but the readings were effected 9 days after the treatment to allow time for the insects to evolve.
# [11] = test system: Sitophilus granarius; assay: Insecticidal activity against Sitophilus granarius, topical application to ventral thorax; details: 20°C; for mortality at 0.1 mg: dose 100 (μg); for mortality at 1 mg: dose 1000 (μg)
# Description: 0.2 μl of an acetone solution of the test product was applied to the ventral thorax of each insect at concentrations of 5000 and 500 ppm with 50 insects for each test. The insects were held at 20°C and the percent of mortality was determined 24 and 48 hours and 6 days after the treatment.
# [12] = test system: Spodoptera exigua caterpillars; assay: Insecticidal activity against Spodoptera exigua caterpillars, topical application; details: for mortality at 0.001 mg / mortality at 0.01 mg: Spodoptera exigua, topical; for mortality at 0.001 mg: 1 μg; for mortality at 0.01 mg: 10 μg
# Description: as §2
# (§4) The procedure of Test A was repeated with Spodoptera expigua and Chilo suppressalis caterpillars with compound A and the results are reported in Table II.
# [13] = test system: Chilo suppressalis caterpillars; assay: Insecticidal activity against Chilo suppressalis caterpillars, topical application; details: for mortality at 0.001 mg / mortality at 0.01 mg: Chilo suppressalis, topical; for mortality at 0.001 mg: 1 μg; for mortality at 0.01 mg: 10 μg
# Description: as §2, §4
compound,measurement,setting,value
"CCOC(=O)Cc1csc(OP(=S)(OCC)OCC)n1 [Compound B, 4-ethoxycarbonylmethyl-2-(diethoxythiophosphoryloxy)-thiazole]",mortality at 1 µg/mL,"[1]; 1 mg/liter, 48 hours",20%
same,mortality at 10 µg/mL,[1]; 48 hours,96%
same,mortality at 50 µg/mL,[1]; 48 h,100%
same,mortality at 100 µg/mL,[2],100%
same,mortality at 1000 µg/mL,[2],100%
same,nematocidal activity,[2],good nematocidal activity
same,mortality at 100 µg/mL,[3],55.7%
same,mortality at 1000 µg/mL,[3],100%
same,nematocidal activity,[3],good nematocidal activity
same,% mortality,"[4]; 625 mg/liter, 24 hr",100%
same,% mortality,"[4]; 625 mg/liter, 48 hr",100%
same,% mortality,"[4]; 625 mg/liter, 6 days",100%
same,% mortality,"[4]; 1250 mg/liter, 24 hr",100%
same,% mortality,"[4]; 1250 mg/liter, 48 hr",100%
same,% mortality,"[4]; 1250 mg/liter, 6 days",100%
same,% mortality,"[4]; 312,5 mg/liter, 24 hr",90%
same,% mortality,"[4]; 312,5 mg/liter, 48 hr",90%
same,% mortality,"[4]; 312,5 mg/liter, 6 days",90%
same,insecticidal activity,[4],good insecticidal activity
"CCOC(=O)c1csc(OP(=S)(OCC)OCC)n1 [Compound A, 4-ethoxycarbonyl-2-(diethoxythiophosphoryloxy)-thiazole]",Emax at 50 µg/mL,[5]; 1 hour,0%
same,Emax at 50 µg/mL,[5]; 2 hours,0%
same,Emax at 50 µg/mL,[5]; 4 hours,0%
same,Emax at 50 µg/mL,[5]; 24 hours,32.8%
same,Emax at 500 µg/mL,[5]; 1 hour,0%
same,Emax at 500 µg/mL,[5]; 2 hours,0%
same,Emax at 500 µg/mL,[5]; 4 hours,0%
same,Emax at 500 µg/mL,[5]; 24 hours,100%
same,Emax at 5000 µg/mL,[5]; 1 hour,0%
same,Emax at 5000 µg/mL,[5]; 2 hours,0%
same,Emax at 5000 µg/mL,[5]; 4 hours,5.9%
same,Emax at 5000 µg/mL,[5]; 24 hours,100%
same,contact and vapor insecticidal activity,[5]; in vivo,good contact and vapor insecticidal activity
same,insecticidal activity,[6],good insecticidal activity
same,mortality at 0.01 mg,[6]; 24 h,100%
same,mortality at 0.01 mg,[6]; 48 h,100%
same,mortality at 10 µg/mL,[1]; 48 hours,100%
same,mortality at 50 µg/mL,"[1]; 50 mg/liter, 48 hours",100%
same,mortality at 100 µg/mL,[7]; 2 h,61.2%
same,mortality at 100 µg/mL,[7]; 24 h,38.8%
same,mortality at 1000 µg/mL,[7]; 2 hours,91.7%
same,mortality at 1000 µg/mL,[7]; 24 hours,97.9%
same,insecticidal activity,[7]; in vivo,good insecticidal activity
same,mortality at 0.001 mg,[8]; 24 hr,40%
same,mortality at 0.001 mg,[8]; 48 hr,50%
same,mortality at 0.01 mg,[8]; 24 hr,100%
same,mortality at 0.01 mg,[8]; 48 hr,100%
same,insecticidal activity,[8]; in vivo,good insecticidal activity
same,mortality at 10 µg/mL,[9]; 10 mg/liter,93.3%
same,mortality at 50 µg/mL,[9]; 50 mg/liter,100%
same,mortality at 100 µg/mL,[2],86.5%
same,mortality at 1000 µg/mL,[2],100%
same,nematocidal activity,[2],good nematocidal activity
same,mortality at 100 µg/mL,[3],88.4%
same,mortality at 1000 µg/mL,[3],100%
same,nematocidal activity,[3],good nematocidal activity
same,mortality at 10 µg/mL,[10]; 10 mg/liter,100%
same,mortality at 50 µg/mL,[10]; 50 mg/liter,100%
same,mortality at 0.1 mg,"[11]; 144 h, 6 days",10%
same,mortality at 1 mg,"[11]; 144 h, 6 days",100%
same,mortality at 0.1 mg,[11]; 24 hr,6%
same,mortality at 0.1 mg,[11]; 48 hr,6%
same,mortality at 1 mg,[11]; 24 hr,100%
same,mortality at 1 mg,[11]; 48 hr,100%
same,mortality at 0.001 mg,[12]; 24 hr,90%
same,mortality at 0.001 mg,[12]; 48 hr,90%
same,mortality at 0.01 mg,[12]; 24 hr,100%
same,mortality at 0.01 mg,[12]; 48 hr,100%
same,insecticidal activity,[12]; in vivo,good insecticidal activity
same,% mortality,"[4]; 625 mg/liter, 24 hr",10.0%
same,% mortality,"[4]; 625 mg/liter, 48 hr",10.0%
same,% mortality,"[4]; 625 mg/liter, 6 days",15.0%
same,% mortality,"[4]; 1250 mg/liter, 24 hr",90.0%
same,% mortality,"[4]; 1250 mg/liter, 48 hr",95.0%
same,% mortality,"[4]; 1250 mg/liter, 6 days",100%
same,% mortality,"[4]; 2500 mg/liter, 24 hr",95.0%
same,% mortality,"[4]; 2500 mg/liter, 48 hr",95.0%
same,% mortality,"[4]; 2500 mg/liter, 6 days",100%
same,insecticidal activity,[4],good insecticidal activity
same,mortality at 0.001 mg,[13]; 24 hr,100%
same,mortality at 0.001 mg,[13]; 48 hr,100%
same,mortality at 0.01 mg,[13]; 24 hr,100%
same,mortality at 0.01 mg,[13]; 48 hr,100%
same,insecticidal activity,[13]; in vivo,good insecticidal activity
